BindingDB's records for doi:10.1016/j.bmc.2015.01.026 (Virginia Tech, 2015)

Target: Acetylcholinesterase (Homo sapiens, UniProt P22303)
Assay: Inhibition of recombinant human AChE
Conditions: read-out: kon (M-1-s-1)

Acetylcholinesterase, sequence (P22303 whole entry): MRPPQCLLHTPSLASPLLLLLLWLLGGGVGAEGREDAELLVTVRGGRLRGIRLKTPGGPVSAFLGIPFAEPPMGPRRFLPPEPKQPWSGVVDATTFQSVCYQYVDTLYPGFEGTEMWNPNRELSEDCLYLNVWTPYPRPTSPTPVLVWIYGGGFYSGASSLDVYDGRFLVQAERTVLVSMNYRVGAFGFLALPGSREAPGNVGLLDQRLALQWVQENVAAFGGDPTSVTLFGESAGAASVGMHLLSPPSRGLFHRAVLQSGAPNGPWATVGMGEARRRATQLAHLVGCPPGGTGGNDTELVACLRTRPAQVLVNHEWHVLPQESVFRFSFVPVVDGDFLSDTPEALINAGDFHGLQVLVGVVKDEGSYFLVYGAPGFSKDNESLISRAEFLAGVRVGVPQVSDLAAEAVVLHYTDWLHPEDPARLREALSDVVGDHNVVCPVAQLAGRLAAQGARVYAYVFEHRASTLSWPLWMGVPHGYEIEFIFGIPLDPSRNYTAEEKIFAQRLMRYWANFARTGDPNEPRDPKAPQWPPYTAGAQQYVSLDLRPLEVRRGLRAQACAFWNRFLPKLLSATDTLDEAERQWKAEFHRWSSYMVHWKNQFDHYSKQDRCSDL

Row | SMILES | kon [M⁻¹ s⁻¹]
1 | CNC(=O)Oc1cccc(C(C)(C)C)c1 | 2100
2 | CCC(C)n1cc(OC(=O)NC)cn1 (stereo not drawn) | 13400
3 | Cc1cc(=O)n(C(=O)N(C)C)o1 | 20.3
4 | CN(C)C(=O)n1oc(C2CC2)cc1=O | 1720
5 | CC(C)c1cc(=O)n(C(=O)N(C)C)o1 | 9350
6 | CN(C)C(=O)n1oc(C2CCC2)cc1=O | 3880
7 | CCC(C)c1cc(=O)n(C(=O)N(C)C)o1 (stereo not drawn) | 36200
8 | CN(C)C(=O)n1oc(C2CCCC2)cc1=O | 11300
9 | CCCC(C)c1cc(=O)n(C(=O)N(C)C)o1 (stereo not drawn) | 51800
10 | CCC(CC)c1cc(=O)n(C(=O)N(C)C)o1 | 33200
11 | CC(C)Cc1cc(=O)n(C(=O)N(C)C)o1 | 515
12 | CCC(C)Cc1cc(=O)n(C(=O)N(C)C)o1 (stereo not drawn) | 1870
13 | CC(C)CCc1cc(=O)n(C(=O)N(C)C)o1 | 1350
14 | CN(C)C(=O)n1oc(CCC2CC2)cc1=O | 2400
15 | CN(C)C(=O)n1oc(CCC2CCC2)cc1=O | 1240
16 | CN(C)C(=O)n1oc(CCC2CCCC2)cc1=O | 1530
17 | CCCC(C)c1cc(=O)n(C(=O)N2CCC2)o1 (stereo not drawn) | 31000
18 | CCCC(C)c1cc(=O)n(C(=O)N(C)CC)o1 (stereo not drawn) | 18000
19 | CCCC(C)c1cc(=O)n(C(=O)N(CC)CC)o1 (stereo not drawn) | 3000
20 | CCCC(C)c1cc(=O)n(C(=O)N2CCCC2)o1 (stereo not drawn) | 6320
21 | CCCC(C)c1cc(=O)n(C(=O)N2CCOCC2)o1 (stereo not drawn) | 433
22 | Cc1cc(OC(=O)N(C)C)no1 | 1.97

Row | SMILES | kon [M⁻¹ s⁻¹]
23 | CN(C)C(=O)Oc1cc(C2CC2)on1 | 33.7
24 | CC(C)c1cc(OC(=O)N(C)C)no1 | 74.3
25 | CN(C)C(=O)Oc1cc(C2CCC2)on1 | 31
26 | CCC(C)c1cc(OC(=O)N(C)C)no1 (stereo not drawn) | 1000
27 | CN(C)C(=O)Oc1cc(C2CCCC2)on1 | 77
28 | CCCC(C)c1cc(OC(=O)N(C)C)no1 (stereo not drawn) | 848
29 | CCC(CC)c1cc(OC(=O)N(C)C)no1 | 151
30 | CCCCC(CC)c1cc(OC(=O)N(C)C)no1 (stereo not drawn) | 35.5
31 | CC(C)Cc1cc(OC(=O)N(C)C)no1 | 26.5
32 | CCC(C)Cc1cc(OC(=O)N(C)C)no1 (stereo not drawn) | 28.3
33 | CN(C)C(=O)Oc1cc(CC(C)(C)C)on1 | 7.33
34 | CC(C)CCc1cc(OC(=O)N(C)C)no1 | 31.8
35 | CN(C)C(=O)Oc1cc(CCC2CC2)on1 | 138
36 | CN(C)C(=O)Oc1cc(CCC2CCC2)on1 | 121
37 | CN(C)C(=O)Oc1cc(CCC2CCCC2)on1 | 218
38 | CCCC(C)c1cc(OC(=O)N(C)CC)no1 (stereo not drawn) | 152
39 | CCCC(C)c1cc(OC(=O)N2CCCC2)no1 (stereo not drawn) | 27
40 | CCCC(C)c1cc(OC(=O)N2CCOCC2)no1 (stereo not drawn) | 44.7
41 | CNC(=O)Oc1cccc2c1OC(C)(C)O2 [CHEBI:34556] | 1850
42 | CNC(=O)Oc1cccc2c1OC(C)(C)C2 [CHEBI:34611] | 7130
43 | CNC(=O)Oc1ccccc1OC(C)C [CHEBI:34938] | 283
